Experimental findings from PubChem BioAssay (NCI) are described below.

Among the test systems are SK-MEL-28 melanoma; RPMI-8226 leukemia; MDA-MB-231 breast; SK-MEL-2 melanoma; T-47D breast; CCRF-CEM leukemia; CAKI-1 renal; A549 NSCLC; SN12C renal; MALME-3M melanoma.
Common to all, as to test: NCI tumour cell line growth inhibition, 48 h

Where “and” joins values, the source holds several entries; their conditions need not be identical. Equal entries are not always repeated.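 Test compounds were applied to cells in 96-well plates for 48 hours at 5 doses. At the GI50, growth is halved. The concentration for full growth arrest is given as TGI.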

For `Clc1ccc(-c2nc3c(-c4ccccc4)nc(-c4ccccc4)cn3c2-c2ccc(Cl)cc2)cc1`, the GI50 with SK-MEL-28 melanoma, with RPMI-8226 leukemia, with MDA-MB-231 breast, in the test with SK-MEL-2 melanoma, with T-47D breast and with CCRF-CEM leukemia was over 100 µM each time. Besides, the GI50 in the test with CAKI-1 renal, in the test on A549 NSCLC, in the test on SN12C renal and in the test with MALME-3M melanoma was over 100 µM in each case. The TGI in the test with SK-MEL-28 melanoma, in the test on RPMI-8226 leukemia, in the test with MDA-MB-231 breast, with SK-MEL-2 melanoma, with T-47D breast and with CCRF-CEM leukemia was over 100 µM each time. For the same compound, the TGI with CAKI-1 renal, in the test on A549 NSCLC, in the test with SN12C renal and with MALME-3M melanoma was over 100 µM throughout.
With `CC(C)(C)[Si](C)(C)OC1[C@@H](O[Si](C)(C)C(C)(C)C)[C@@H](CNC(=O)NC(=O)NC(=O)CCl)O[C@H]1n1cnc2c(NC(=O)Nc3ccccc3)ncnc21` (stereo not given in full), the GI50 is 8.78 µM in the test on SK-MEL-28 melanoma; 1.56 µM in the test with RPMI-8226 leukemia; 1.31 µM with MDA-MB-231 breast; 8.62 µM in the test with SK-MEL-2 melanoma; 8.59 µM with T-47D breast; 0.127 µM in the test with CCRF-CEM leukemia. Further, the GI50 in the test on CAKI-1 renal was 2.2 µM; in the test with A549 NSCLC, 2.26 µM; with SN12C renal, 3.69 µM; with MALME-3M melanoma, 1.34 µM. The TGI stood at 17.8 µM with SK-MEL-28 melanoma; 5.95 µM with RPMI-8226 leukemia; 3.76 µM with MDA-MB-231 breast; 17.6 µM in the test on SK-MEL-2 melanoma; 17.5 µM with T-47D breast; 0.334 µM in the test on CCRF-CEM leukemia. The TGI came to 9.42 µM in the test with CAKI-1 renal, 8.92 µM in the test on A549 NSCLC, 10.6 µM with SN12C renal and 3.64 µM with MALME-3M melanoma.
For `O=C(COc1cccc(/C=C2\COc3ccccc3C2=O)c1)c1ccccc1`, the GI50 is 3.24 µM with SK-MEL-28 melanoma; 1.84 µM in the test with RPMI-8226 leukemia; 10.6 µM with MDA-MB-231 breast; 2.75 µM with SK-MEL-2 melanoma; 2.53 µM in the test with T-47D breast; 1.98 µM in the test with CCRF-CEM leukemia. Besides, the GI50 in the test on CAKI-1 renal is 3.32 µM; with A549 NSCLC, 15.7 µM; in the test on SN12C renal it was 4.7 µM; in the test with MALME-3M melanoma, 13.1 µM. Besides, the TGI was found to be 10.7 µM in the test with SK-MEL-28 melanoma; 4.85 µM in the test on RPMI-8226 leukemia; 22.9 µM in the test on MDA-MB-231 breast; 9.68 µM in the test on SK-MEL-2 melanoma; 6.04 µM with T-47D breast; 7.62 µM in the test on CCRF-CEM leukemia. Further, the TGI turned out to be 12.7 µM in the test with CAKI-1 renal, 49.7 µM in the test on A549 NSCLC, 19.8 µM in the test with SN12C renal and 28.2 µM in the test with MALME-3M melanoma.
In the case of `COC(=O)CC1C2(C)C3=C(C)C(c4ccoc4)CC3OC2C2OC(=O)C3(C)C=CC(=O)C1(C)C23` (stereo not given), the TGI in the test with SK-MEL-28 melanoma was 2.66 µM; with RPMI-8226 leukemia, 1.16 µM; in the test on MDA-MB-231 breast it was 2.81 µM; in the test on SK-MEL-2 melanoma it was 3.58 µM; in the test on T-47D breast, 2.92 µM; with CCRF-CEM leukemia it was 2.17 µM. For the same compound, the TGI in the test on CAKI-1 renal was found to be 2.15 µM; with A549 NSCLC, 11.4 µM; in the test on SN12C renal, 2.58 µM; in the test with MALME-3M melanoma, 2.48 µM.
For the compound `Cc1cncc(-c2nc(NCCc3c[nH]c4ccccc34)c3ncn(C(C)C)c3n2)c1`, the GI50 in the test with SK-MEL-28 melanoma was 2.52 µM; with RPMI-8226 leukemia it was 2.28 µM; in the test with MDA-MB-231 breast, 4.3 µM; in the test on SK-MEL-2 melanoma, 2.83 µM; in the test with T-47D breast, 4.98 µM; in the test on CCRF-CEM leukemia, 2.99 µM. Also, the GI50 in the test on CAKI-1 renal is 4.12 µM; with A549 NSCLC it was 4.28 µM; in the test on SN12C renal, 3.67 µM; in the test with MALME-3M melanoma, 2.08 µM. The TGI in the test on SK-MEL-28 melanoma came out at 6.66 µM; with RPMI-8226 leukemia, 5.23 µM; with MDA-MB-231 breast it was 17.6 µM; with SK-MEL-2 melanoma, 9.8 µM; with T-47D breast, 19.6 µM; in the test with CCRF-CEM leukemia it was 9.84 µM. The TGI in the test on CAKI-1 renal is 30.4 µM; in the test with A549 NSCLC, over 100 µM; in the test with SN12C renal, 32.4 µM; in the test on MALME-3M melanoma, 5.71 µM.
With `NC(CP(=O)(O)O)C(=O)O` (stereo not given), the TGI with SK-MEL-28 melanoma, with RPMI-8226 leukemia, in the test with MDA-MB-231 breast, in the test with SK-MEL-2 melanoma, in the test on T-47D breast and with CCRF-CEM leukemia was over 100 µM each time. The TGI in the test on CAKI-1 renal, in the test with A549 NSCLC, with SN12C renal and in the test with MALME-3M melanoma was over 100 µM each time.
`CS(=O)(=O)c1ccc2c(c1)C(=O)c1c-2n(CCCBr)c(=O)c2cc([N+](=O)[O-])ccc12`: the GI50 was over 100 µM in the test on SK-MEL-28 melanoma; 1.68 µM in the test on RPMI-8226 leukemia; 51.1 µM in the test with MDA-MB-231 breast; 19.6 µM in the test on SK-MEL-2 melanoma; 4.88 µM with T-47D breast; 0.758 µM with CCRF-CEM leukemia. The GI50 is 16.4 µM with CAKI-1 renal, 7.34 µM with A549 NSCLC, 6.88 µM in the test on SN12C renal and 69.6 µM in the test on MALME-3M melanoma. The TGI with SK-MEL-28 melanoma was over 100 µM; in the test on RPMI-8226 leukemia it was 42.8 µM; with MDA-MB-231 breast, over 100 µM; in the test on SK-MEL-2 melanoma, 43.8 µM; in the test with T-47D breast it was over 100 µM; in the test with CCRF-CEM leukemia, 30.7 µM. Further, the TGI in the test with CAKI-1 renal, with A549 NSCLC, with SN12C renal and in the test with MALME-3M melanoma was over 100 µM in each case.
Take `C=C[C@H]1CN2CCc3c([nH]c4c([C@@H]5CCCN5C)c(O)ccc34)[C@@H]2C[C@@H]1C[C@H]1c2[nH]c3ccccc3c2CCN1C`: the TGI in the test on SK-MEL-28 melanoma is 2.98 µM and 3.3 µM; with MDA-MB-231 breast, 3.16 µM and 3.46 µM; with SK-MEL-2 melanoma it was 3.37 µM; in the test on T-47D breast it was 3.26 µM and 3.91 µM; in the test with CAKI-1 renal, 3 µM and 3.23 µM; with A549 NSCLC, 3.12 µM and 3.13 µM. For the same compound, the TGI in the test with SN12C renal was 3.13 µM and 3.39 µM; in the test on MALME-3M melanoma it was 3.41 µM. Moreover, the GI50 was 1.94 µM with RPMI-8226 leukemia; 0.484 µM and 0.475 µM in the test on CCRF-CEM leukemia.
